Measured values published in patent publication US20050239656A1, “Pyridine compounds or salts thereof and herbicides containing the same” (priority 2002, published 2005).

Legend:
[1] = tested on: velvetleaf; test: Test Example 2: soil surface treatment, upland pot test; type: in vivo, Abutilon theophrasti MEDIC.; conditions: active ingredient 1000 g/ha, observed 20th to 28th day
Outline: (§1)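 A pre-emergence soil application: formulated compound at a predetermined active-ingredient dose, diluted in water to 1,500 L/ha, sprayed on upland soil a day after seeding in 1/170,000 ha pots; growth control rated visually, 0 (untreated level) to 100 (kill), at 20–28 days.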

[2] = tested on: barnyardgrass; test: Test Example 3: paddy pot test, application under submerged conditions; type: in vivo, Echinochloa crus-galli L.; conditions: submerged application at 0.5 leaf stage, visually observed 14 days after application, 0 = non-treated, 100 = complete kill
Outline: (§2)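 Seeds were sown in flooded paddy soil (0.5–1 cm water), wapato tubers were planted 1–2 days later, and water was then held at 3–4 cm. Diluted wettable powder or emulsifiable concentrate was pipetted into the water at the 0.5 leaf or primary leaf stage. Growth control was visually scored at 14 days (0–100%).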

[3] = tested on: rice; test: Test Example 1: foliage treatment, upland pot test; type: in vivo, Oryza sativa L.; conditions: crop, active ingredient 1000 g/ha, observed 18th to 23rd day, 0 = non-treated, 100 = complete kill
Outline: (§3)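 Pots of upland field soil were sown and sprayed post-emergence at soybean 0.1–0.4, wheat 1.3–2.4, rice 1.2–2.6 and barnyardgrass 1.3–2.8 leaf stages. Formulations were diluted in water at 500 L/ha with 0.1% (v/v) spreader. Growth control (0 = untreated, 100 = complete kill) was judged by eye 18–23 days later.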

[4] = tested on: green foxtail; test: Test Example 2: soil surface treatment, upland pot test; type: in vivo, Setaria viridis L.; conditions: active ingredient 1000 g/ha, observed 20th to 28th day
Outline: as §1

[5] = tested on: redroot pigweed; test: as above; type: in vivo, Amaranthus retroflexus L.; conditions: active ingredient 1000 g/ha, observed 20th to 28th day
Outline: as §1

[6] = tested on: corn; test: Test Example 1: foliage treatment, upland pot test; type: in vivo, Zea mays L.; conditions: crop, active ingredient 1000 g/ha, observed 18th to 23rd day, 0 = non-treated, 100 = complete kill
Outline: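 Corn seeds were sown in upland field soil held in a 1/170,000 ha pot and grown to the 2.1 to 3.2 leaf stage. A wettable powder or emulsifiable concentrate of the test compound was diluted with water at 500 L/ha, given 0.1% (v/v) agricultural spreader, and sprayed onto the foliage with a small sprayer. Growth controlling degree (%) was scored visually 18th to 23rd days later, from 0 (non-treated) to 100 (complete kill).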

[7] = tested on: tall morningglory; test: Test Example 1: foliage treatment, upland pot test; type: in vivo, Ipomoea purpurea L.; conditions: active ingredient 1000 g/ha, observed 18th to 23rd day, 0 = non-treated, 100 = complete kill
Description: Upland field soil was put into a 1/170,000 ha pot, and seed of various plants were sown. Then, when the plants reached predetermined leaf stages ((1) barnyardgrass: 1.3 to 2.8 leaf stages, (2) crabgrass: 1.0 to 2.8 leaf stages, (3) green foxtail: 1.3 to 2.6 leaf stages, (4) redroot pigweed: 0.1 to 1.2 leaf stages, (5) prickly sida: 0.1 to 1.2 leaf stages, (6) velvetleaf: 0.1 to 1.2 leaf stages, (7) tall morningglory: 0.1 to 1.5 leaf stages, (8) rice: 1.2 to 2.6 leaf stages, (9) wheat: 1.3 to 2.4 leaf stages, (10) corn, 2.1 to 3.2 leaf stages, (11) soybean: 0.1 to 0.4 leaf stage), a wettable powder or emulsifiable concentrate having the compound of the present invention formulated in accordance with a usual formulation method, was weighed so that the active ingredient would be a predetermined amount, and diluted with water in an amount of 500 L/ha. To the diluted solution, 0.1% (v/v) of agricultural spreader was added. The herbicide thus adjusted was applied by a small size sprayer for foliage treatment. On the 18th to 23rd days after the application of the herbicide, the growth of the respective plants was visually observed, and the herbicidal effects were evaluated by the growth controlling degrees (%) ranging from 0 (equivalent to the non-treated plot) to 100 (complete kill), whereby the results shown in Table 3, were obtained.

[8] = tested on: crabgrass; test: Test Example 1: foliage treatment, upland pot test; type: in vivo, Digitaria sanguinalis L.; conditions: active ingredient 1000 g/ha, observed 18th to 23rd day, 0 = non-treated, 100 = complete kill
[9] = tested on: green foxtail; test: Test Example 1: foliage treatment, upland pot test; type: in vivo, Setaria viridis L.; conditions: active ingredient 1000 g/ha, observed 18th to 23rd day, 0 = non-treated, 100 = complete kill
[10] = tested on: rice; test: Test Example 2: soil surface treatment, upland pot test; type: in vivo, Oryza sativa L.; conditions: active ingredient 1000 g/ha, observed 20th to 28th day
Outline: as §1

[11] = tested on: prickly sida; test: Test Example 1: foliage treatment, upland pot test; type: in vivo, Sida spinosa L.; conditions: active ingredient 1000 g/ha, observed 18th to 23rd day, 0 = non-treated, 100 = complete kill
[12] = tested on: japanese bulrush; test: Test Example 3: paddy pot test, application under submerged conditions; type: in vivo, Scirpus juncoides; conditions: submerged application at 0.5 leaf stage, visually observed 14 days after application, 0 = non-treated, 100 = complete kill
Outline: as §2

[13] = tested on: redroot pigweed; test: Test Example 1: foliage treatment, upland pot test; type: in vivo, Amaranthus retroflexus L.; conditions: active ingredient 1000 g/ha, observed 18th to 23rd day, 0 = non-treated, 100 = complete kill
[14] = tested on: barnyardgrass; test: Test Example 1: foliage treatment, upland pot test; type: in vivo, Echinochloa crus-galli L.; conditions: active ingredient 1000 g/ha, observed 18th to 23rd day, 0 = non-treated, 100 = complete kill
Outline: as §3

[15] = tested on: wheat; test: Test Example 2: soil surface treatment, upland pot test; type: in vivo, Triticum spp.; conditions: active ingredient 1000 g/ha, observed 20th to 28th day
Outline: as §1

[16] = tested on: barnyardgrass; test: as above; type: in vivo, Echinochloa crus-galli L.; conditions: active ingredient 1000 g/ha, observed 20th to 28th day, 0 = non-treated, 100 = complete kill
Outline: as §1

[17] = tested on: japanese ribbon wapato; test: Test Example 3: paddy pot test, application under submerged conditions; type: in vivo, Sagittaria pygniaea; conditions: submerged application at primary leaf stage, visually observed 14 days after application, 0 = non-treated, 100 = complete kill
Outline: as §2

[18] = tested on: corn; test: Test Example 2: soil surface treatment, upland pot test; type: in vivo, Zea mays L.; conditions: active ingredient 1000 g/ha, observed 20th to 28th day
Outline: as §1

[19] = tested on: soybean; test: Test Example 1: foliage treatment, upland pot test; type: in vivo, Glycine max Merr.; conditions: crop, active ingredient 1000 g/ha, observed 18th to 23rd day, 0 = non-treated, 100 = complete kill
Outline: as §3

[20] = tested on: crabgrass; test: Test Example 2: soil surface treatment, upland pot test; type: in vivo, Digitaria sanguinalis L.; conditions: active ingredient 1000 g/ha, observed 20th to 28th day
Outline: as §1

[21] = tested on: wheat; test: Test Example 1: foliage treatment, upland pot test; type: in vivo, Triticum spp.; conditions: crop, active ingredient 1000 g/ha, observed 18th to 23rd day, 0 = non-treated, 100 = complete kill
Outline: as §3

[22] = tested on: rice (var. Nihonbare); test: Test Example 3: paddy pot test, transplanted rice; type: in vivo, Oryza sativa L.; conditions: applied 4th day after transplantation, visually observed 21st day after application, 0 = non-treated, 100 = complete kill
Outline: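 Rice (2-leaf stage) was transplanted 3 cm deep into puddled, leveled paddy soil under 3–4 cm flooding. On day 4 after transplanting, diluted wettable powder or emulsifiable concentrate was pipetted onto the water at a predetermined active-ingredient dose. Growth control (0 = untreated, 100 = complete kill) was scored visually 21 days later.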

[23] = tested on: velvetleaf; test: Test Example 1: foliage treatment, upland pot test; type: in vivo, Abutilon theophrasti MEDIC.; conditions: active ingredient 1000 g/ha, observed 18th to 23rd day, 0 = non-treated, 100 = complete kill
[24] = tested on: prickly sida; test: Test Example 2: soil surface treatment, upland pot test; type: in vivo, Sida spinosa L.; conditions: active ingredient 1000 g/ha, observed 20th to 28th day
Outline: as §1

[25] = tested on: soybean; test: as above; type: in vivo, Glycine max Merr.; conditions: active ingredient 1000 g/ha, observed 20th to 28th day
Outline: as §1

| Structure (SMILES) | Growth controlling degree (%) Velvetleaf [1] | Growth controlling degree (%) Rice [3] | Growth controlling degree (%) Green foxtail [4] | Growth controlling degree (%) Redroot pigweed [5] | Growth controlling degree (%) Corn [6] | Growth controlling degree (%) Tall morningglory [7] | Growth controlling degree (%) Crabgrass [8] | Growth controlling degree (%) Green foxtail [9] | Growth controlling degree (%) Rice [10] | Growth controlling degree (%) Prickly sida [11] | Growth controlling degree (%) Redroot pigweed [13] | Growth controlling degree (%) Barnyardgrass [14] | Growth controlling degree (%) wheat [15] | Growth controlling degree (%) Barnyardgrass [16] | Growth controlling degree (%) Corn [18] | Growth controlling degree (%) Soybean [19] | Growth controlling degree (%) Crabgrass [20] | Growth controlling degree (%) wheat [21] | Growth controlling degree (%) Velvetleaf [23] | Growth controlling degree (%) Prickly sida [24] | also measured |
| --- | --- | --- | --- | --- | --- | --- | --- | --- | --- | --- | --- | --- | --- | --- | --- | --- | --- | --- | --- | --- | --- |
| CC(C)C(c1cnccc1C(F)(F)F)N(C)C(=O)Cc1ccc(Br)cc1 (centres unmarked) [I-10] | 60% | 30% | 100% | 60% | 60% | 95% | 95% | 90% | 30% | 90% | 90% | 90% | 20% | 100% | 10% | 90% | 100% | 30% | 95% | 60% | Growth controlling degree (%) Barnyardgrass ([2]; active ingredient 500 g/ha): 100%; Growth controlling degree (%) Japanese bulrush ([12]; active ingredient 500 g/ha): 98%; Growth controlling degree (%) Japanese ribbon wapato ([17]; active ingredient 500 g/ha): 10%; Growth controlling degree (%) Rice ([22]; active ingredient 500 g/ha): 10%; Growth controlling degree (%) Soyabean [25]: 30% |
| CC(C)C(c1cnccc1C(F)(F)F)N(C)C(=O)Cc1ccccc1Br (centres unmarked) [I-15] | 60% | 10% | 100% | 70% | 0% | 80% | 70% | 80% | 40% | 80% | 70% | 70% | 30% | 100% | 40% | 40% | 100% | 20% | 70% | 70% | Growth controlling degree (%) Barnyardgrass ([2]; active ingredient 250 g/ha): 100%; Growth controlling degree (%) Japanese bulrush ([12]; active ingredient 250 g/ha): 95%; Growth controlling degree (%) Japanese ribbon wapato ([17]; active ingredient 250 g/ha): 100%; Growth controlling degree (%) Rice ([22]; active ingredient 250 g/ha): 10%; Growth controlling degree (%) Soyabean [25]: 20% |
